# What was measured:
# [1] = molecular target: T1, hM1 (human Muscarinic receptor subtype 1) (Homo sapiens, UniProt P11229); assay: Human M1 calcium mobilization FLIPR assay; type: cell-based; details: hM1 expressed in CHO cells, intracellular Ca2+ release (FLIPR)
# T1 construct: expressed in transfected cells; host or cells: CHO cells (ATCC)
# T1 sequence (P11229 1-460): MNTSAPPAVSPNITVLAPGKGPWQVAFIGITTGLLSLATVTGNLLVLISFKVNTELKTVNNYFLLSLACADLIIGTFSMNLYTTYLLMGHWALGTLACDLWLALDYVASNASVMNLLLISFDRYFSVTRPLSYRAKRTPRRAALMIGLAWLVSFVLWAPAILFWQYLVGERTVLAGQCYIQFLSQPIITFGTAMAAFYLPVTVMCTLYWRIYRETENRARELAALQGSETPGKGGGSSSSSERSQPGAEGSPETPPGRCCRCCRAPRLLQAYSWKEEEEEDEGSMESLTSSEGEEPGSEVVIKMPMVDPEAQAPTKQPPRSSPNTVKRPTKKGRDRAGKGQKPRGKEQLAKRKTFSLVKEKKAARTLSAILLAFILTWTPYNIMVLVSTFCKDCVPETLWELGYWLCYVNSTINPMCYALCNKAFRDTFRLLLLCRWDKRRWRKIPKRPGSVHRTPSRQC
# Description: Human M1, rat M1, Human M3 and Human M5 Calcium Mobilization FLIPR™ Assay The compound activity in the present invention (EC50 or IC50) is measured using a 384 plate-based imaging assay that monitors drug induced intracellular Ca^2+ release in whole cells. Activation of hM1 (human Muscarinic receptor subtype 1, gene bank access NM_000738), rM1 (rat Muscarinic receptor subtype 1, gene bank access NM_080773), hM3 (human Muscarinic receptor subtype 3, gene bank access NM_000740NM_000740) and hM5 (human Muscarinic receptor subtype 5, gene bank access NM_0121258), receptors expressed in CHO cells (Chinese hamster ovary cells, ATCC) is quantified in a Molecular Devices FLIPR IITM instrument as an increase in fluorescent signal. Inhibition of hM3 and hM5 by compounds is determined by the decrease in fluorescent signal in response to 2 nM acetylcholine activation. […] Prior to experiment, the cell culture medium is removed from the plates by inversion. […] Plates are incubated at 37° C. for 60 minutes prior to start the experiment. The incubation is terminated by washing the cells four times in assay buffer, leaving a residual 25 μl buffer per well. Cell plates are then transferred to the FLIPR, ready for compound additions. The day of experiment, acetylcholine and compounds are diluted in assay buffer in three-fold concentration range (10 points serial dilution) for addition by FLIPR instrument. For all calcium assays, a baseline reading is taken for 10 seconds followed by the addition of 12.5 μl of compounds, resulting in a total well volume of 37.5 μl. Data is collected every second for 60 pictures and then every 6 seconds for 20 pictures prior to the addition of agonist. For hM3 and hM5, before agonist addition, a second baseline reading is taken for 10 seconds followed by the addition of 12.5 μl of agonist or buffer, producing a final volume of 50 μl. After agonist stimulation, the FLIPR continues to collect data every second for 60 pictures and then every 6 seconds for 20 pictures. The fluorescence emission is read using filter 1 (emission 510-570 nm) by the FLIPR on board CCD camera. Calcium mobilization output data are calculated as the maximal relative fluorescence unit (RFU) minus the minimal value for both compound and agonist reading frame (except for hM1 and rM1 using only the maximal RFU). Data are analyzed using sigmoidal fits of a non-linear curve-fitting program (XLfit version 4.2.2 Excel add-in version 4.2.2 build 18 math 1Q version 2.1.2 build 18). All pEC50 and pIC50 values are reported as arithmetic means±standard error of mean of ‘n’ independent experiments.
# cloned human M2 receptor = molecular target: T2, cloned human M2 receptor (Homo sapiens, UniProt P08172); assay: hM2 receptor GTPγS binding; type: biochemical; details: CHO membranes expressing hM2, [35S]GTPγS binding
# T2 construct: purchased Perkin-Elmer RBHM2M; host or cells: Chinese hamster ovary cells (CHO), membranes
# T2 sequence (P08172 1-466): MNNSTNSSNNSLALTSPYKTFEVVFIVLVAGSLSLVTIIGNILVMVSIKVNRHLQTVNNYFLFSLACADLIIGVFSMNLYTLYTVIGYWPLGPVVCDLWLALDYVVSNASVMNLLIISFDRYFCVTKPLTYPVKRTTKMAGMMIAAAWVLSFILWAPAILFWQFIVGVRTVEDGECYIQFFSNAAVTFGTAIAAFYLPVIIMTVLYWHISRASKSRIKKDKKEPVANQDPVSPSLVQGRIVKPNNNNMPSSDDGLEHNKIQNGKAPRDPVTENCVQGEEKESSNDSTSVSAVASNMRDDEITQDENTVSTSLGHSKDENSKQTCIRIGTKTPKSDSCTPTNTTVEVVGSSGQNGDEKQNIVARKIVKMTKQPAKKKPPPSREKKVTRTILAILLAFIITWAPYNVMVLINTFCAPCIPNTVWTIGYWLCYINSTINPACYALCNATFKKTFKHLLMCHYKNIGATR
# Description: hM2 Receptor GTPγS Binding Membranes produced from Chinese hamster ovary cells (CHO) expressing the cloned human M2 receptor (human Muscarinic receptor subtype 2, gene bank access NM_000739), are obtained from Perkin-Elmer (RBHM2M). The membranes are thawed at 37° C., passed 3 times through a 23-gauge blunt-end needle, diluted in the GTPγS binding buffer (50 mM Hepes, 20 mM NaOH, 100 mM NaCl, 1 mM EDTA, 5 mM MgCl2, pH 7.4, 100 μM DTT). The EC50, IC50 and Emax of the compounds of the invention are evaluated from 10-point dose-response curves (three fold concentration range) done in 60 μl in 384-well non-specific binding surface plate (Corning). Ten microliters from the dose-response curves plate (5× concentration) are transferred to another 384 well plate containing 25 μl of the following: 5 μg of hM2 membranes, 500 μg of Flashblue beads (Perkin-Elmer) and GDP 25 μM. An additional 15 μl containing 3.3× (60,000 dpm) of GTPγ^35S (0.4 nM final) are added to the wells resulting in a total well volume of 50 μl. Basal and maximal stimulated [^35S]GTPγS binding are determined in absence and presence of 30 μM final of acetylcholine agonist. The membranes/beads mix are pre-incubated for 15 minutes at room temperature with 25 μM GDP prior to distribution in plates (12.5 μM final). The reversal of acetylcholine-induced stimulation (2 μM final) of [^35S]GTPγS binding is used to assay the antagonist properties (IC50) of the compounds. The plates are incubated for 60 minutes at room temperature then centrifuged at 400 rpm for 5 minutes. The radioactivity (cpm) is counted in a Trilux (Perkin-Elmer). Values of EC50, IC50 and Emax are obtained using sigmoidal fits of a non-linear curve-fitting program (XLfit version 4.2.2 Excel add-in version 4.2.2 build 18 math 1Q version 2.1.2 build 18) of percent stimulated [^35S]GTPγS binding vs. log(molar ligand). All pEC50 and pIC50 values are reported as arithmetic means±standard error of mean of ‘n’ independent experiments.
EC50 [1] [nM],EC50 (cloned human M2 receptor) [nM],SMILES
5.6,1000,"O=C1CO[C@H]2CCCC[C@@H]2N1C1CCN(C2CCC(COCC3CC3)CC2)CC1 (single isomer, unassigned) [Example 22]"
4.2,1600,"CCOC[C@H]1CC[C@@H](N2CCC(N3C(=O)CO[C@H]4CCCC[C@@H]43)CC2)C1 [Example 42, (4aS,8aS)-4-(1-((1R,3S)-3-(ethoxymethyl)cyclopentyl)piperidin-4-yl)hexahydro-2H-benzo[b][1,4]oxazin-3(4H)-one]"
48,6100,"CCOCC1CCC(N2CCC(N3C(=O)CO[C@H]4CCCC[C@@H]43)CC2)C1 (single isomer, unassigned) [Example 45]"
18,> 10000,"CC(C)OCC1CCC(N2CCC(N3C(=O)CO[C@H]4CCC(F)(F)C[C@@H]43)CC2)CC1 (single isomer, unassigned) [Example 38]"
5.2,350,"CCOCC1CCC(N2CCC(N3C(=O)NC[C@H]4CCCC[C@@H]43)CC2)CC1 (mixture of isomers) [Example 08, (4aR,8aS)-1-(1-(4-(ethoxymethyl)cyclohexyl)piperidin-4-yl)octahydroquinazolin-2(1H)-one]"
41,> 5700,"O=C1CO[C@H]2CCCC[C@@H]2N1C1CCN(C2CCC(COCCF)CC2)CC1 (single isomer, unassigned) [Example 24]"
88,> 48000,"CCCOC1CCC(N2CCC(N3C(=O)CO[C@H]4CCCC[C@@H]43)CC2)CC1 (single isomer, unassigned) [Example 17]"
21,7700,"CCCOCC1CCC(N2CCC(N3C(=O)NC[C@H]4CCCC[C@@H]43)CC2)CC1 (single isomer, unassigned) [Example 01]"
15,2200,"O=C1COC2CCCC2N1C1CCN([C@H]2CC[C@@H](COCC3CC3)CC2)CC1 (single isomer, unassigned) [Example 48]"
41,2500,"CCCOC1CCC(N2CCC(N3C(=O)NC[C@H]4CCCC[C@@H]43)CC2)CC1 (single isomer, unassigned) [Example 06]"
4.2,870,"O=C1CO[C@H]2CCCC[C@@H]2N1C1CCN(C2CCC(COCC(F)F)CC2)CC1 (single isomer, unassigned) [Example 27]"
12,> 3900,"CCOC[C@@H]1CC[C@H](N2CCC(N3C(=O)CO[C@H]4CCCC[C@@H]43)CC2)C1 [Example 43, (4aS,8aS)-4-(1-((1S,3R)-3-(ethoxymethyl)cyclopentyl)piperidin-4-yl)hexahydro-2H-benzo[b][1,4]oxazin-3(4H)-one]"
9.9,2800,"CCOCC1CCC(N2CCC(N3C(=O)CO[C@H]4CCCC[C@@H]43)CC2)CC1 (single isomer, unassigned) [Example 14]"
17,> 3600,"O=C1CO[C@H]2CCCC[C@@H]2N1C1CCN(C2CCC(COCC(F)F)CC2)CC1 (single isomer, unassigned) [Example 26]"
34,> 13000,"CC(C)OCC1CCC(N2CCC(N3C(=O)CO[C@H]4CCC(F)(F)C[C@@H]43)CC2)CC1 (single isomer, unassigned) [Example 37]"
14,8700,"CC(C)OCC1CCC(N2CCC(N3C(=O)CO[C@H]4CCCC[C@@H]43)CC2)CC1 (single isomer, unassigned) [Example 19]"
23,3000,"O=C1NC[C@H]2CCCC[C@@H]2N1C1CCN(C2CCC(COCC(F)F)CC2)CC1 (single isomer, unassigned) [Example 51]"
9.6,> 2700,"O=C1CO[C@H]2CCCC[C@@H]2N1C1CCN(C2CCC(COCCF)CC2)CC1 (single isomer, unassigned) [Example 25]"
7.8,3500,"CC(C)OCC1CCC(N2CCC(N3C(=O)CO[C@H]4CCCC[C@@H]43)CC2)CC1 (single isomer, unassigned) [Example 18]"
57,4400,"O=C1CO[C@H]2CCCC[C@@H]2N1C1CCN(C2CC(COCC3CCC3)C2)CC1 (single isomer, unassigned) [Example 40]"
3.2,660,"CC(C)OCC1CCC(N2CCC(N3C(=O)NC[C@H]4CCCC[C@@H]43)CC2)CC1 (single isomer, unassigned) [Example 04]"
17,> 21000,"CCOCC1CCC(N2CCC(N3C(=O)CO[C@H]4CCCC[C@@H]43)CC2)CC1 (single isomer, unassigned) [Example 13]"
10,3500,"CC(C)OCC1CCC(N2CCC(N3C(=O)CO[C@H]4CCCC[C@@H]43)CC2)CC1 (mixture of isomers) [Example 15, (4aS,8aS)-4-(1-(4-(isopropoxymethyl)cyclohexyl)piperidin-4-yl)hexahydro-2H-benzo[b][1,4]oxazin-3(4H)-one]"
2,240,"CCCOCC1CCC(N2CCC(N3C(=O)NC[C@H]4CCCC[C@@H]43)CC2)CC1 (single isomer, unassigned) [Example 02]"
33,5000,"CCOCC1CC(N2CCC(N3C(=O)CO[C@H]4CCCC[C@@H]43)CC2)C1 (single isomer, unassigned) [Example 39]"
38,> 1200,"O=C1CO[C@H]2CCCC[C@@H]2N1C1CCN(C2CCC(COCC3CC3)CC2)CC1 (single isomer, unassigned) [Example 23]"

# Source: patent US20090275574A1, “NOVEL COMPOUNDS-300” (ASTRAZENECA AB, priority 2008, published 2009)
